Laboratory results from the NIST ThermoML archive (doi:10.1016/j.jct.2012.02.033).

What was measured:
[1] = 101.33 kPa, Liquid, Vibrating tube method
[2] = xn = mol fraction of the nth substance listed; details: 101.3 kPa, Liquid, Vibrating tube method

CCC(C)=O [butanone]
[1]
Details	mass density [kg/m3]
293.15 K	808.64
298.15 K	803.24
303.15 K	797.88
308.15 K	792.45
313.15 K	786.94

C1CCOC1 [tetrahydrofuran]
[1]
Details	mass density [kg/m3]
293.15 K	888.73
298.15 K	883.24
303.15 K	877.6
308.15 K	872.02
313.15 K	866.23

CCNC=O [N-ethylformamide]
[1]
Details	mass density [kg/m3]
293.15 K	951.59
298.15 K	947.48
303.15 K	943.29
308.15 K	939.04
313.15 K	934.78

CCNC=O [N-ethylformamide] + C1CCOC1
mass density [kg/m3], [2]
Details	x1 = 0.1142	x1 = 0.2142	x1 = 0.3179	x1 = 0.4258	x1 = 0.5219	x1 = 0.6177	x1 = 0.7146	x1 = 0.8111	x1 = 0.9121
293.15 K	896.3	903.1	910.05	917.17	923.35	929.34	935.26	940.88	946.8
298.15 K	890.99	897.92	905.07	912.38	918.66	924.77	930.78	936.53	942.58
303.15 K	885.68	892.77	900.1	907.54	913.98	920.19	926.31	932.18	938.31
308.15 K	880.28	887.57	895.02	902.62	909.25	915.53	921.81	927.84	934.01
313.15 K	874.84	882.2	889.89	897.66	904.45	910.99	917.2	923.35	929.64

CCNC=O [N-ethylformamide] + CCOC(C)=O
mass density [kg/m3], [2]
Details	x1 = 0.1322	x1 = 0.2514	x1 = 0.3559	x1 = 0.4653	x1 = 0.564	x1 = 0.671	x1 = 0.7544	x1 = 0.8376	x1 = 0.9223
293.15 K	907.89	914.13	919.39	924.91	929.7	935.01	939.27	943.3	947.63
298.15 K	901.99	908.51	914.06	919.68	924.66	930.12	934.56	938.85	943.28
303.15 K	896.06	902.84	908.62	914.51	919.65	925.33	929.93	934.35	938.94
308.15 K	890.09	897.16	903.23	909.29	914.62	920.5	925.29	929.86	934.56
313.15 K	884.03	891.14	897.65	903.98	909.53	915.67	920.55	925.31	930.15

CCOC(C)=O [ethyl acetate]
[1]
Details	mass density [kg/m3]
293.15 K	900.26
298.15 K	894.14
303.15 K	887.85
308.15 K	881.52
313.15 K	875.14

CCNC=O [N-ethylformamide] + CCC(C)=O
mass density [kg/m3], [2]
Details	x1 = 0.1242	x1 = 0.2302	x1 = 0.3384	x1 = 0.4407	x1 = 0.5398	x1 = 0.6369	x1 = 0.7317	x1 = 0.8186	x1 = 0.91
293.15 K	826.16	840.95	856.12	870.55	884.78	898.71	912.21	925	938.61
298.15 K	820.91	836.01	851.11	865.71	880.07	894.02	907.71	920.61	934.41
303.15 K	815.8	830.97	846.25	860.93	875.4	889.48	903.31	916.28	930.12
308.15 K	810.54	825.9	841.32	856.14	870.71	884.87	898.84	911.88	925.83
313.15 K	805.22	820.74	836.31	851.26	865.95	880.2	894.3	907.42	921.48
